# PubChem BioAssay (NCI)
# Values joined by “and” are separate entries in the source; they are usually repeats but may differ in a detail not shown here. Equal entries are not always repeated.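 Briefly, cells in 96-well plates were exposed to five compound concentrations for 48 h, and endpoints were estimated by linear interpolation. GI50 = concentration required for 50% inhibition of growth. TGI: concentration producing complete growth inhibition.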
# Assays:
# Assay in all cases: NCI anticancer screen, dose series, 48 h
# [1] = tested on: MDA-MB-468 breast
# [2] = tested on: 786-0 renal
# [3] = tested on: A498 renal
# [4] = tested on: A549 NSCLC
# [5] = tested on: ACHN renal
# [6] = tested on: BT-549 breast
# [7] = tested on: CAKI-1 renal
# [8] = tested on: CCRF-CEM leukemia
# [9] = tested on: COLO 205 colon
# [10] = tested on: DU-145 prostate
# [11] = tested on: EKVX NSCLC
# [12] = tested on: HCC-2998 colon
# [13] = tested on: HCT-116 colon
# [14] = tested on: HCT-15 colon
# [15] = tested on: HL-60(TB) leukemia
# [16] = tested on: HOP-62 NSCLC
# [17] = tested on: HOP-92 NSCLC
# [18] = tested on: HS 578T breast
# [19] = tested on: HT29 colon
# [20] = tested on: IGROV1 ovarian
# [21] = tested on: K-562 leukemia
# [22] = tested on: KM12 colon
# [23] = tested on: LOX IMVI melanoma
# [24] = tested on: M14 melanoma
# [25] = tested on: MALME-3M melanoma
# [26] = tested on: MCF7 breast
# [27] = tested on: MDA-MB-231 breast
# [28] = tested on: MDA-MB-435
# [29] = tested on: MOLT-4 leukemia
# [30] = tested on: NCI-H226 lung
# [31] = tested on: NCI-H23 lung
# [32] = tested on: NCI-H460 lung
# [33] = tested on: NCI-H522 lung
# [34] = tested on: OVCAR-3 ovarian
# [35] = tested on: OVCAR-4 ovarian
# [36] = tested on: OVCAR-5 ovarian
# [37] = tested on: OVCAR-8 ovarian
# [38] = tested on: PC-3 prostate
# [39] = tested on: RPMI-8226 leukemia
# [40] = tested on: RXF 393 renal
# [41] = tested on: SF-268 CNS
# [42] = tested on: SF-295 CNS
# [43] = tested on: SF-539 CNS
# [44] = tested on: SK-MEL-28 melanoma
# [45] = tested on: SK-MEL-5 melanoma
# [46] = tested on: SK-OV-3 ovarian
# [47] = tested on: SN12C renal
# [48] = tested on: SNB-19 CNS
# [49] = tested on: SNB-75 CNS
# [50] = tested on: SW-620 colon
# [51] = tested on: T-47D breast
# [52] = tested on: TK-10 renal
# [53] = tested on: U251 CNS
# [54] = tested on: UACC-257 melanoma
# [55] = tested on: UACC-62 melanoma
# [56] = tested on: UO-31 renal
smiles,measurement,setting,value
N/C(=N\OC(=O)c1ccccc1)C(C(=O)NOC(=O)c1ccccc1)C1CCCCC1 (configuration not stated),GI50,[1],13.3 µM
same,TGI,[1],29.4 µM
Cn1cc(C2=C(c3cn(C)c4ccc(N)cc34)C(=O)NC2=O)c2ccccc21,GI50,[1],7.35 µM
same,TGI,[1],> 25 µM
COc1ccc(C(=O)N2c3ccccc3Sc3ccccc32)c(F)c1,GI50,[1],0.413 µM
same,TGI,[1],> 100 µM
S=C(N/N=C/c1cc(Cl)cc(Cl)c1)NC12CC3CC(CC(C3)C1)C2,GI50,[1],16.8 µM
same,TGI,[1],> 100 µM
CCN(CCCCCCCCCCN1CC(=O)N(CCCCCCCCCCN(CC)Cc2ccccc2OC)CC1=O)Cc1ccccc1OC,GI50,[1],1.11 µM
same,TGI,[1],2.5 µM
Cc1cc(N(CCNc2ccnc3cc(Cl)ccc23)Cc2ccc3c(c2)OCO3)nc(N2CCN(C)CC2)n1,GI50,[1],1.87 µM
same,TGI,[1],4.02 µM
O=C(Nc1ccc(OC(F)(F)F)cc1)c1sccc1NCc1ccnc2ccccc12,GI50,[1],1.52 µM
same,TGI,[1],19.8 µM
COc1ccc(-c2cc(-c3ccc(Cl)cc3)c(C#N)c(=O)n2CCCCC(=O)Nc2ccccc2N)cc1,GI50,[1],5.68 µM
same,TGI,[1],67.5 µM
Clc1ccc(COC(Cn2ccnc2)c2ccc(Cl)cc2Cl)cc1 (configuration not stated),GI50,[1],2.02 µM
same,TGI,[1],6.81 µM
CC1(C)N=C(N)N=C(N)N1c1ccc(CCc2ccccc2)c(Cl)c1,GI50,[1],0.0555 µM
same,TGI,[1],1.34 µM
CCN1CCN(Cc2ccc(NC(=O)Nc3ccc(-n4ccc5c(NC(=O)c6ccccc6)nccc54)cc3)cc2C(F)(F)F)CC1,GI50,[1],1.77 µM
same,TGI,[1],3.3 µM
CNC(=O)Nc1ccc(-c2nc(N3CCOCC3)nc3c2cnn3C2CCOCC2)cc1,GI50,[1],0.151 µM
same,TGI,[1],0.936 µM
Clc1ccc(-c2ccc(OCCCN3CCN(c4ccncc4)CC3)cc2)cc1,GI50,[2],14 µM
same,TGI,[2],27.1 µM
same,GI50,[3],15.8 µM
same,TGI,[3],29.6 µM
same,GI50,[4],15.1 µM
same,TGI,[4],29.9 µM
same,GI50,[5],16.3 µM
same,TGI,[5],30.4 µM
same,GI50,[6],11.7 µM
same,TGI,[6],25.9 µM
same,GI50,[7],15.3 µM
same,TGI,[7],32.4 µM
same,GI50,[8],4.65 µM
same,TGI,[8],24.1 µM
same,GI50,[9],7.31 µM
same,TGI,[9],20.6 µM
same,GI50,[10],17.9 µM
same,TGI,[10],55.4 µM
same,GI50,[11],12 µM
same,TGI,[11],27.9 µM
same,GI50,[12],13.3 µM
same,TGI,[12],26.6 µM
same,GI50,[13],2.73 µM
same,TGI,[13],10.4 µM
same,GI50,[14],1.88 µM
same,TGI,[14],3.82 µM
same,GI50,[15],4.46 µM
same,TGI,[15],19.7 µM
same,GI50,[16],14.7 µM
same,TGI,[16],29 µM
same,GI50,[17],3.46 µM
same,TGI,[17],20.3 µM
same,GI50,[18],17.9 µM
same,TGI,[18],45.3 µM
same,GI50,[19],3.77 µM
same,TGI,[19],14.8 µM
same,GI50,[20],16.8 µM
same,TGI,[20],32.1 µM
same,GI50,[21],2.64 µM
same,TGI,[21],> 100 µM
same,GI50,[22],14.5 µM
same,TGI,[22],29.7 µM
same,GI50,[23],1.86 µM
same,TGI,[23],3.63 µM
same,GI50,[24],14.3 µM
same,TGI,[24],28.7 µM
same,GI50,[25],18.1 µM
same,TGI,[25],32.7 µM
same,GI50,[26],6.19 µM
same,TGI,[26],21.2 µM
same,GI50,[27],11.8 µM
same,TGI,[27],24.7 µM
same,GI50,[28],11.1 µM
same,TGI,[28],23.5 µM
same,GI50,[1],6.28 µM
same,TGI,[1],19.5 µM
same,GI50,[29],6.71 µM
same,TGI,[29],> 100 µM
same,GI50,[30],20.8 µM
same,TGI,[30],55.8 µM
same,GI50,[31],13.9 µM
same,TGI,[31],29.1 µM
same,GI50,[32],7.47 µM
same,TGI,[32],21.4 µM
same,GI50,[33],16.6 µM
same,TGI,[33],31.9 µM
same,GI50,[34],13 µM
same,TGI,[34],30.2 µM
same,GI50,[35],15.6 µM
same,TGI,[35],41.7 µM
same,GI50,[36],14.5 µM
same,TGI,[36],28.6 µM
same,GI50,[37],22 µM
same,TGI,[37],68.1 µM
same,GI50,[38],8.43 µM
same,TGI,[38],51.3 µM
same,GI50,[39],6.95 µM
same,TGI,[39],> 100 µM
same,GI50,[40],6.74 µM
same,TGI,[40],20.6 µM
same,GI50,[41],16.9 µM
same,TGI,[41],36.5 µM
same,GI50,[42],13.9 µM
same,TGI,[42],28.1 µM
same,GI50,[43],12.5 µM
same,TGI,[43],25.4 µM
same,GI50,[44],15.3 µM
same,TGI,[44],29.2 µM
same,GI50,[45],14.9 µM
same,TGI,[45],28.1 µM
same,GI50,[46],15.5 µM
same,TGI,[46],30.4 µM
same,GI50,[47],13 µM
same,TGI,[47],26.3 µM
same,GI50,[48],15.7 µM
same,TGI,[48],30 µM
same,GI50,[49],14.9 µM
same,TGI,[49],32.5 µM
same,GI50,[50],9.92 µM
same,TGI,[50],23.3 µM
same,GI50,[51],16.2 µM
same,TGI,[51],40.2 µM
same,GI50,[52],19.6 µM
same,TGI,[52],36.2 µM
same,GI50,[53],11.8 µM
same,TGI,[53],25.4 µM
same,GI50,[54],17.3 µM
same,TGI,[54],32.6 µM
same,GI50,[55],16.7 µM
same,TGI,[55],30.5 µM
same,GI50,[56],14.7 µM
same,TGI,[56],29.6 µM
C[C@]12CC[C@@H]3c4ccc(O)c([N+](=O)[O-])c4CC[C@H]3[C@@H]1CC[C@@H]2NS(=O)(=O)c1ccc(C(F)(F)F)cc1,GI50,[1],2.18 µM
same,TGI,[1],6.29 µM
C#Cc1nc(/C=C/C(=O)NO)cs1,GI50,[1],1.11 µM
same,TGI,[1],4.16 µM
CC[C@H](C)[C@H](NC(=O)c1cnccn1)C(=O)N(C)[C@H](C[C@@H](OC(C)=O)c1nc(C(=O)N[C@@H](Cc2ccccc2)C[C@H](C)C(=O)OC)cs1)C(C)C,GI50,[1],0.595 µM
same,TGI,[1],29.8 µM
COc1cc(/C=C2\CN(C)CC3=C2Nc2nc(SC)[nH]c(=O)c2C3c2cc(OC)c(OC)c(OC)c2)cc(OC)c1OC (configuration not stated),GI50,[1],2.2 µM
same,TGI,[1],10.6 µM
N=C(N)c1ccc(-c2ccc(-c3ccc(Cl)cc3Cl)o2)cc1,GI50,[1],1.94 µM
same,TGI,[1],3.68 µM
CCOC(=O)c1c(NC(=O)c2ccc(C(C)C)cc2)sc2c(CN(C)C)c(O)ccc12,GI50,[1],1.88 µM
same,TGI,[1],4.09 µM
CCN(c1ccc(CO)c(Cl)c1)C(C)c1ccc(F)cc1 (configuration not stated),GI50,[1],0.64 µM
same,TGI,[1],5.26 µM
COc1ccc(Cl)cc1Nc1nc(C(F)(F)F)ccc1C(=O)NN,GI50,[1],3.88 µM
same,TGI,[1],> 85.9 µM
NS(=O)(=O)c1ccc(N2Cc3cc(Cl)ccc3OC3=C2C(=O)N(CC2CCCCC2)C3=O)cc1,GI50,[1],0.962 µM
same,TGI,[1],2.73 µM
CC(C)n1c(/C=C/[C@@H](O)C[C@@H](O)CC(=O)O)c(-c2ccc(F)cc2)c2ccccc21,GI50,[1],5.72 µM and 2.55 µM
same,TGI,[1],> 100 µM
C#C[C@]1(O)CC[C@H]2[C@@H]3CC=C4c5nc(Nc6ccccn6)sc5CC[C@]4(C)[C@H]3CC[C@@]21C,GI50,[1],1.62 µM
same,TGI,[1],5.15 µM
COc1cc(-c2csc(NC(=O)c3cc(C(F)(F)F)cc(C(F)(F)F)c3)n2)cc(OC)c1OC,GI50,[1],1.64 µM
same,TGI,[1],7.02 µM
CC1=CC(=O)CC(C)(C)[C@@]1(O)/C=C/C(C)=C\C(=O)O,GI50,[1],0.116 µM
same,TGI,[1],0.308 µM
COC(=O)c1ccc2c(c1)C(NC(C)=O)CCc1cc(OC)c(OC)c(OC)c1-2 (configuration not stated),GI50,[1],0.0184 µM
same,TGI,[1],> 100 µM
COc1cc(Nc2ccnc(N3CCN(c4ccnc5cc(Cl)ccc45)CC3)n2)cc(OC)c1,GI50,[1],0.832 µM
same,TGI,[1],> 84.9 µM
Cc1cccc(NC(=O)c2sc3nc4c(cc3c2N)CCCC4)c1C,GI50,[1],0.339 µM
same,TGI,[1],> 100 µM
Cc1ccc(C(=O)/C(=C/c2ccc([N+](=O)[O-])cc2)S(=O)Cc2ccccc2)cc1 (configuration not stated),GI50,[1],1.71 µM
same,TGI,[1],4.07 µM
C[n+]1cc2c3c(ccc2c2ccc4cc5c(cc4c21)OCO5)OCO3,GI50,[1],1.05 µM
same,TGI,[1],2.48 µM
CS(=O)(=O)c1ccc(Cl)c([N+](=O)[O-])c1,GI50,[1],1.6 µM
same,TGI,[1],3.47 µM
CN1CCCN(CCNc2nccc(-c3c(-c4cccc(O)c4)nc4sccn34)n2)S1(=O)=O,GI50,[1],9.05 µM and 10.7 µM
same,TGI,[1],24.1 µM and 53 µM
Cc1ccc(C(=O)Nc2ccc(CN3CCN(C)CC3)c(C(F)(F)F)c2)cc1C#Cc1cnc(N)c2ccc(F)cc12,GI50,[1],0.359 µM
same,TGI,[1],1.19 µM
CCNCCCn1c2c(c3cc(OC)c(OC)cc3c1=O)C(=O)c1cc(OC)cnc1-2,GI50,[1],0.31 µM
same,TGI,[1],1.44 µM
Fc1cccc(COc2ccc(Nc3ncnc4sc(-c5ccco5)cc34)cc2Cl)c1,GI50,[1],> 17.7 µM
same,TGI,[1],> 25 µM
